The values below come from article PMC9316017, “Succinimido–Ferrocidiphenol Complexed with Cyclodextrins Inhibits Glioblastoma Tumor Growth In Vitro and In Vivo without Noticeable Adverse Toxicity” (Molecules, 2022).

Data set [1] in a line: Dissolution of the lyophilized complex in water. In kind it is physicochemical. Conditions: 25 °C. On the procedure: To investigate the dissolution, an amount (5 mg) of the lyophilized SuccFerr:RAMEßCD complex was suspended in water. The suspension was incubated at 25 °C in a shaking-bath (200 strokes/min, Heito, France). One-milliliter aliquots were taken at various time intervals up to 24 h and centrifuged× 7200g, 5 min, (Denver Instruments, Bohemia, NY, USA). Each supernatant was analyzed by HPLC to assess the drug contents. The results are presented as mean ± SD of triplicate experiments. A dialysis was also realized under magnetic stirring with a 14,000 Da cut-off bag, containing 2 mL of an aqueous solution of 5 mg of SuccFerr:RAMEßCD and 498 mL of distilled water. Aliquots were taken and analyzed as previously described.

The subject of data set [2] is fifteen molecularly diverse glioblastoma patient-derived cell lines (PDCLs). Details: method as in PMID 34638742. To be noted: cited from earlier work.

The structures appear in SMILES notation. Where two headings read alike, the source gives them in different places.

As a reminder, the IC50 is the concentration that inhibits the measured activity by half. As for `O=C1CCC(=O)N1CCCC(=C(c1ccc(O)cc1)c1ccc(O)cc1)[c-]1cccc1.[Fe+2].c1cc[cH-]c1` [SuccFerr, N-[4-ferrocenyl,5-5-bis (4-hydroxyphenyl)-pent-4-enyl]-succinimide], the “dissolution in distilled water” value in data set [1] is “cannot be dissolved and was undetectable”. In data set [2], the “IC50 ratio (highest/lowest)” value was “≈ 3000”. For the same compound, the IC50 is around 30 µM in data set [2] (read-out: highest IC50 across the PDCLs) and 0.01 µM in data set [2] (read-out: lowest IC50 across the PDCLs).
